Laboratory results reported in PubChem BioAssay AID434987 (Southern Research Specialized Biocontainment Screening …, 2010).
pIC50: −log10 of the molar value. Activity calls are given as the source filed them. No rule for the calls is given here.

System: M. tuberculosis H37Rv growth inhibition with meropenem
Experiment: dose response, H37Rv, with and without meropenem (AID 434987);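 also: growth over 7 days at 37 °C before Alamar Blue read on day 9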
[1] = M. tuberculosis H37Rv growth inhibition, measured here: IC50 without meropenem
[2] = M. tuberculosis H37Rv growth inhibition, measured here: IC90 without meropenem
[3] = measured here: IC90 with meropenem

| Structure (SMILES) | IC50 | pIC50 [1] | IC90 [2] [µM] | IC90 [3] [µM] | pIC50 |
| --- | --- | --- | --- | --- | --- |
| Nc1c(Cl)cc(-c2csc(N3CCCC3c3nc4cc(Cl)c(N5CCCCC5)cc4n3CCCO)n2)cc1Cl (configuration not stated) | 97.3 µM (inactive) | < 4.00 | > 100 | > 100 |  |
| COc1cc(SC)ccc1C(=O)Nc1ccc(C)cc1C |  | < 4.00 | > 100 | > 100 | 4.42 |
| CC/C(=N\NC(=O)c1ccc(N(C)C)cc1)c1ccccc1 | > 100 µM (inactive) | < 4.00 | > 100 | > 100 |  |
| Cn1c(=O)c(C(=O)COC(=O)c2cc(C3CC3)nc3ccccc23)c(N)n(Cc2ccccc2)c1=O | > 100 µM (inactive) | < 4.00 | > 100 | > 100 |  |
| CCOC(=O)c1c(C)n(-c2ccccc2)c2ccc(OCCN(C)C)cc12 |  | 4.21 | > 100 | 21.7 | 5.26 |
| CS(=O)(=O)N(Cc1ccc(Cl)cc1)c1ccc(C(=O)NCCC2=CCCCC2)cc1 | > 100 µM (inactive) | < 4.00 | > 100 | > 100 |  |
| NNC(=O)c1oc2nc(-c3ccco3)cc(-c3ccco3)c2c1N | 13.6 µM (inactive) | 4.62 | > 100 | > 100 |  |
| COc1ccc(C[C@H](C)NC[C@@H](O)c2ccc(O)c(NC=O)c2)cc1 | > 100 µM (inactive) | < 4.00 | > 100 | > 100 |  |
| Cc1ccccc1OCC(=O)Nc1ccccc1N1CCCCC1 |  | 4.02 | > 100 | 13.5 | 5.23 |
| CNC(=S)N/N=C1\C(=O)c2cccc3cccc1c23 |  | < 4.00 | > 100 | > 100 | 4.70 |
| CC(=O)Nc1ccc(SCC(=O)c2cc(C)n(C)c2C)cc1 | 47 µM (inactive) | 4.24 | > 100 | 53.6 |  |
| COc1cc2c(cc1OC)C(c1ccccc1)CC2=O (configuration not stated) | 43.3 µM (inactive) | 4.03 | > 100 | > 100 |  |
| CCN(CC)c1ccc(CN2CCCCCC2)cc1 | 43.6 µM (inactive) | 4.32 | > 100 | 49.4 |  |
| COc1ccc(-c2csc(NC(C)c3nc4cc(Cl)c(Cl)cc4n3CCCO)n2)cc1 (configuration not stated) | 97.3 µM (inactive) | < 4.00 | > 100 | > 100 |  |
| O=C(COn1nnc2ccc(Cl)cc21)NC12CC3CC(CC(C3)C1)C2 | > 100 µM (inactive) | < 4.00 | > 100 | > 100 |  |
| CCOc1ccc(S(=O)(=O)n2nnc3ccccc32)cc1C(C)C | > 100 µM (inactive) | < 4.00 | > 100 | > 100 |  |
| Cc1ccccc1CSc1nnc(C)c(=O)n1N | 19.5 µM (inactive) | 4.34 | > 100 | 32.3 |  |
| COc1ccc(-c2sc3cc(OC)c(OC)cc3c2C#CCCO)cc1 | > 100 µM (inactive) | < 4.30 | > 50 | > 100 |  |
| CCCCNC(=O)/C(=C/c1ccccc1)NC(C)=O | > 100 µM (inactive) | < 4.00 | > 100 | > 100 |  |
| CCCCOc1ccc(/C=N/Nc2cc(N3CCOCC3)nc(C)n2)cc1 | > 100 µM (inactive) | < 4.00 | > 100 | > 100 |  |
| O=C1COc2ccc(C(=O)CCl)cc2N1 | 25.7 µM (inactive) | 4.61 | 27 | 44.4 |  |
| O=c1c2c3n(c(=S)nc2[nH]n1-c1ccccc1)CCCCC3 | 12.4 µM (inactive) | 4.57 | > 100 | 13.3 |  |

| Structure (SMILES) | IC50 | pIC50 [1] | IC90 [2] [µM] | IC90 [3] [µM] | pIC50 |
| --- | --- | --- | --- | --- | --- |
| Cc1ccc(OCC(=O)Nc2ccc(-c3nc4ncccc4o3)cc2)c(C)c1 | > 100 µM (inactive) | < 4.00 | > 100 | > 100 |  |
| O=C(NCc1ccc2c(c1)OCO2)C(=O)NC1CCCCC1 | > 100 µM (inactive) | < 4.00 | > 100 | > 100 |  |
| CCC1(CC)Cc2ccccc2C(N)=C1C#N | > 100 µM (inactive) | < 4.00 | > 100 | > 100 |  |
| CCOc1ccc2nc(SCC(=O)Nc3nonc3C)[nH]c2c1 |  | < 4.00 | > 100 | > 100 | 4.48 |
| CC(=O)OCC(=O)Nc1ccc(C(C)=O)cc1 | 89.2 µM (inactive) | 4.02 | > 100 | > 100 |  |
| CCCC(C)NC(=O)c1ccccc1SC (configuration not stated) | 36.4 µM (inactive) | 4.23 | > 100 | > 100 |  |
| O=C(N/N=C/c1ccc2c(c1)OCO2)c1sc2cc(Cl)ccc2c1Cl | > 100 µM (inactive) | < 4.00 | > 100 | > 100 |  |
| COc1cc(NC(=O)c2ccccc2)c(OC)cc1NC(=O)CN1CCOCC1 | 14.5 µM (inactive) | 4.49 | > 100 | 69.2 |  |
| O=c1oc(-c2cccs2)nc2sc3c(c12)CCC3 | 93 µM (inactive) | < 4.00 | > 100 | > 100 |  |
| CC1CCN(C(=S)NC(=O)c2ccccc2)CC1 |  | 4.39 | 77.6 | 13.6 | 4.92 |
| Cc1[nH]c2c(C)cccc2c1CCNC(=O)c1ccc2c(c1[N+](=O)[O-])C(=O)c1ccccc1C2=O | > 100 µM (inactive) | < 4.00 | > 100 | > 100 |  |
| COc1cccc(/C=N/NC(N)=S)c1OS(=O)(=O)c1ccccc1 |  | < 4.00 | > 100 | > 25 | 4.72 |
| COc1ccc(-c2cc(C(F)F)nc(-n3nc(C)cc3C)n2)cc1 | 24.3 µM (inactive) | 4.32 | > 100 | 54.1 |  |
| O=C(CCSc1ccccc1)Nc1nc2c(s1)CCCC2 | > 100 µM (inactive) | < 4.00 | > 100 | > 100 |  |
| c1ccc(-c2n[nH]c3c2CCC3)cc1 |  | 4.84 | 32.4 | 46.3 | 5.43 |
| CCOc1ccc2nc(N3CCC(C(=O)NC4CCCCC4)CC3)sc2c1 | > 100 µM (inactive) | < 4.00 | > 100 | > 100 |  |
| CC1CC(C)(C)n2c(O)c(N=NC(N)=S)c3cccc1c32 (configuration not stated) | > 100 µM (inactive) | < 4.00 | > 100 | > 100 |  |
| Cc1cc(C)c(N=Cc2c(O)n(-c3nccs3)c(=O)c3ccccc23)c(C)c1 | > 100 µM (inactive) | < 4.00 | > 100 | > 100 |  |
| CCOC(=O)N1CCN(C(=O)CSc2nnc(-c3ccccc3OC)o2)CC1 |  | 4.52 | 62.6 | > 100 | 5.18 |
| CCCCCCC(=O)Nc1nc(C)c(-c2csc(Nc3cc(Cl)ccc3OC)n2)s1 | 42.3 µM (inactive) | 4.29 | > 100 | > 100 |  |
| C[C@]12CC[C@@H]3c4ccc(OS(=O)(=O)O)cc4CC[C@H]3[C@@H]1CCC2=O | > 100 µM (inactive) | < 4.00 | > 100 | > 100 |  |
